The results in this text go back to patent US20260272895A1, “METHODS AND KITS FOR DELIVERY OF COMPOUNDS INTO CELLS” (Yale University, priority 2023, published 2026).

Molecules are shown by their SMILES.

Test [1] addresses T1, SLCO1A2 (Homo sapiens, UniProt P46721).
T1 sequence (P46721 1-670): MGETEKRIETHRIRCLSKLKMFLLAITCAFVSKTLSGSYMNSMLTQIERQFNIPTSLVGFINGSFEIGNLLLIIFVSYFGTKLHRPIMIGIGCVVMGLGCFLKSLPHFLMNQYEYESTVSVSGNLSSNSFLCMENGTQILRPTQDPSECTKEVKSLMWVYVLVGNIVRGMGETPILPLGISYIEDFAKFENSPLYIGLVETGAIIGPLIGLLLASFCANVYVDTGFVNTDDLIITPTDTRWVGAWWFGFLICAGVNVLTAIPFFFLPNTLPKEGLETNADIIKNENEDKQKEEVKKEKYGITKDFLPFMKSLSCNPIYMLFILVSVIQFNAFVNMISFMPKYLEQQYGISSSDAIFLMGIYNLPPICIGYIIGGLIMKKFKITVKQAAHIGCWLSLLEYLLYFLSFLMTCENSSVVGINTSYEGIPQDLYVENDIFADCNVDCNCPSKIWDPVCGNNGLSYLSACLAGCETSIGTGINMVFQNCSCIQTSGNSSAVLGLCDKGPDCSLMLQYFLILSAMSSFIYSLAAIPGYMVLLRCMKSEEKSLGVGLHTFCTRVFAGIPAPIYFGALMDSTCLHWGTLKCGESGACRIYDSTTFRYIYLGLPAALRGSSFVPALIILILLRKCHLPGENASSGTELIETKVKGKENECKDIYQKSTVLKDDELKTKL
Nature of the test: Compound uptake in HEK293 cells transfected with SLCO1A2. It counts as cell-based. On the set-up: FLAG. Here is the method:
(§1) HEK293 cells are cultured and seeded at ~60% confluency in 24-well plates and are transiently transfected with 250 ng of a candidate transporter and 1 μL transfection reagent (JetPRIME). After 2 days, cells are washed and novel fluorescent probes at different concentrations are added to the transport medium and incubated at 37° C., for at least 30 minutes. To terminate the transport, cells are washed with PBS and fixed with 4% paraformaldehyde. The colocalization of probe uptake and cells expressing the transporters is investigated by immunostaining the transporter which has a fused FLAG tag, using anti-FLAG 488. Before confocal imaging, nuclei are labeled with Hoechst 33342 and cells are mounted and imaged on a Leica SP8 confocal microscope.
(§2) For in vitro experiments, HEK293 cells were cultured and seeded in 24-well plates, reaching approximately 60% confluency. For transient transfection, 250 ng of a candidate transporter plasmid and 1 μL of transfection reagent (JetPRIME) were added to the cells. After a 2-day incubation period, the cells were washed, and novel fluorescent probes were introduced into the transport medium at various concentrations. The cells were then incubated at 37° C., for a minimum of 30 minutes to allow for uptake. To stop the transport process, the cells were washed with PBS and fixed using 4% paraformaldehyde. Immunostaining of the transporter, which was fused with a FLAG tag, was performed using an anti-FLAG 488 antibody. Before confocal imaging, the cell nuclei were labeled with Hoechst 33342. Finally, the cells were mounted and imaged using a Leica SP8 confocal microscope.

In test [2] the target is T2, Slco1a4 (Mus musculus, UniProt Q9EP96).
T2 sequence (Q9EP96 1-670): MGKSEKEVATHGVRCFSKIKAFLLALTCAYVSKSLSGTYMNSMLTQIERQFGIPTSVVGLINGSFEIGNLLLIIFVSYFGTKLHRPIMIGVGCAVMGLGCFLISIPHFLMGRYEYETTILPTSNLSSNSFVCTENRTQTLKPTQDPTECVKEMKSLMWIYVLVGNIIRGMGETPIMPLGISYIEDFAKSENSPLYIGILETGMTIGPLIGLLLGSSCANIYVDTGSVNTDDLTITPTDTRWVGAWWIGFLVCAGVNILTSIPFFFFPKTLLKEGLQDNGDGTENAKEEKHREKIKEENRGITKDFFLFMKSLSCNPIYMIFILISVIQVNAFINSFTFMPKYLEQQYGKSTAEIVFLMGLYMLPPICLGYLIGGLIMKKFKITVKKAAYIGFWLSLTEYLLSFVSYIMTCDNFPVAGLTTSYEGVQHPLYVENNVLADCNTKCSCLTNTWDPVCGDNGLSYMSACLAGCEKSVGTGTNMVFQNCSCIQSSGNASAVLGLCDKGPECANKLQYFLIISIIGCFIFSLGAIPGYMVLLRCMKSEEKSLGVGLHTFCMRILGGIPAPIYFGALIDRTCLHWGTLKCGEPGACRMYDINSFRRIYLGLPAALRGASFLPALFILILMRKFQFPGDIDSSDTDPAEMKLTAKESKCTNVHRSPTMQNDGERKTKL
Nature of the test: Compound uptake in HEK293 cells transfected with Slco1a4. The test is classed as cell-based. On the set-up: FLAG; expressed in transfected cells. The procedure: as §1, §2

Take `O=S(=O)([O-])c1cc(S(=O)(=O)O)ccc1C1=c2cc3c4c(c2Oc2cc(Br)ccc21)CCC[N+]=4CCC3` [Compound 1, 2-(12-bromo-1,2,3,5,6,7-hexahydrochromeno[2,3-f]pyrido[3,2,1-ij]quinolin-4-ium-9-yl)-5-sulfobenzenesulfonate]: in test [1] (concentration not given), the “uptake in SLCO1A2 transfected HEK293 cells” value is recorded as “only those cells expressing the carrier SLCO1A2 (as evidenced by anti-FLAG labeling-green) take up compound 1”. In test [2] (concentration not given), the “uptake in Slco1a4 transfected HEK293 cells” value is reported as “only those cells expressing SLCO1A4 (as evidenced by anti-FLAG labeling-green) take up compound 1”.
As for `COc1cc2c(c(OC)c1OC)-c1ccc(OC)c(=O)cc1C(NS(=O)(=O)c1ccc(-c3c4ccc(N(C)C)cc4[o+]c4cc(N(C)C)ccc34)c(S(=O)(=O)[O-])c1)CC2` (stereo not shown) [Compound 47, 2-(3,6-bis(dimethylamino)xanthylium-9-yl)-5-(N-(1,2,3,10-tetramethoxy-9-oxo-5,6,7,9-tetrahydrobenzo[a]heptalen-7-yl)sulfamoyl)benzenesulfonate], in test [1] (10 μM), the “uptake in SLCO1A2 transfected HEK293 cells” value is “robust and selective uptake”. The “uptake in Slco1a4 transfected HEK293 cells” value in test [2] (10 μM) was “robust and selective uptake”.
